Laboratory results published in the NIST ThermoML archive (doi:10.1007/s10765-006-0056-z).
± gives the expanded uncertainty stated by the source.

Test: molar heat capacity at constant volume; xn = mol fraction of the nth substance listed

## CCCCCCCCCC [decane] + O=C=O
443.07 K, Fluid (supercritical or subcritical phases), Mass density=374.7 kg/m3, Isochoric Heat Capacity Apparatus, x1 = 0.095
  molar heat capacity at constant volume: 344.18 ± 6.9 J/K/mol
443.68 K, Fluid (supercritical or subcritical phases), Mass density=374.7 kg/m3, Isochoric Heat Capacity Apparatus, x1 = 0.095
  molar heat capacity at constant volume: 343.49 ± 6.9 J/K/mol
444.49 K, Fluid (supercritical or subcritical phases), Mass density=374.7 kg/m3, Isochoric Heat Capacity Apparatus, x1 = 0.095
  molar heat capacity at constant volume: 342.85 ± 6.9 J/K/mol
447.32 K, Fluid (supercritical or subcritical phases), Mass density=457.5 kg/m3, Isochoric Heat Capacity Apparatus, x1 = 0.178
  molar heat capacity at constant volume: 485.87 ± 9.7 J/K/mol
447.32 K, Liquid, iso, x1 = 0.178
  molar heat capacity at constant volume: 568.28 ± 11 J/K/mol
447.95 K, Fluid (supercritical or subcritical phases), Mass density=457.5 kg/m3, Isochoric Heat Capacity Apparatus, x1 = 0.178
  molar heat capacity at constant volume: 478.12 ± 9.6 J/K/mol
448.27 K, Fluid (supercritical or subcritical phases), Mass density=457.5 kg/m3, Isochoric Heat Capacity Apparatus, x1 = 0.178
  molar heat capacity at constant volume: 482.3 ± 9.7 J/K/mol
448.55 K, Fluid (supercritical or subcritical phases), Mass density=457.5 kg/m3, Isochoric Heat Capacity Apparatus, x1 = 0.178
  molar heat capacity at constant volume: 479.96 ± 9.6 J/K/mol
449.12 K, Fluid (supercritical or subcritical phases), Mass density=398.3 kg/m3, Isochoric Heat Capacity Apparatus, x1 = 0.095
  molar heat capacity at constant volume: 331.01 ± 6.6 J/K/mol
451.39 K, Fluid (supercritical or subcritical phases), Mass density=201.8 kg/m3, Isochoric Heat Capacity Apparatus, x1 = 0.178
  molar heat capacity at constant volume: 488.2 ± 9.8 J/K/mol
451.39 K, Liquid, iso, x1 = 0.178
  molar heat capacity at constant volume: 574.18 ± 12 J/K/mol
452.33 K, Fluid (supercritical or subcritical phases), Mass density=457.5 kg/m3, Isochoric Heat Capacity Apparatus, x1 = 0.178
  molar heat capacity at constant volume: 465.26 ± 9.3 J/K/mol
452.33 K, Fluid (supercritical or subcritical phases), Mass density=509.4 kg/m3, Isochoric Heat Capacity Apparatus, x1 = 0.095
  molar heat capacity at constant volume: 318.95 ± 6.4 J/K/mol
453.23 K, Fluid (supercritical or subcritical phases), Mass density=457.5 kg/m3, Isochoric Heat Capacity Apparatus, x1 = 0.178
  molar heat capacity at constant volume: 462.99 ± 9.3 J/K/mol
457.12 K, Fluid (supercritical or subcritical phases), Mass density=374.7 kg/m3, Isochoric Heat Capacity Apparatus, x1 = 0.095
  molar heat capacity at constant volume: 340.82 ± 6.8 J/K/mol
457.77 K, Liquid, iso, x1 = 0.178
  molar heat capacity at constant volume: 595.83 ± 12 J/K/mol
459 K, Fluid (supercritical or subcritical phases), Mass density=477.6 kg/m3, Isochoric Heat Capacity Apparatus, x1 = 0.095
  molar heat capacity at constant volume: 323.65 ± 6.5 J/K/mol
460.15 K, Liquid, iso, x1 = 0.178
  molar heat capacity at constant volume: 606.1 ± 12 J/K/mol
460.39 K, Fluid (supercritical or subcritical phases), Mass density=320.2 kg/m3, Isochoric Heat Capacity Apparatus, x1 = 0.095
  molar heat capacity at constant volume: 354.21 ± 7.1 J/K/mol
460.69 K, Fluid (supercritical or subcritical phases), Mass density=320.2 kg/m3, Isochoric Heat Capacity Apparatus, x1 = 0.095
  molar heat capacity at constant volume: 351.33 ± 7 J/K/mol
460.89 K, Fluid (supercritical or subcritical phases), Mass density=320.2 kg/m3, Isochoric Heat Capacity Apparatus, x1 = 0.095
  molar heat capacity at constant volume: 350 ± 7 J/K/mol
463.26 K, Fluid (supercritical or subcritical phases), Mass density=87 kg/m3, Isochoric Heat Capacity Apparatus, x1 = 0.095
  molar heat capacity at constant volume: 712.69 ± 14 J/K/mol
463.26 K, Fluid (supercritical or subcritical phases), Mass density=398.3 kg/m3, Isochoric Heat Capacity Apparatus, x1 = 0.095
  molar heat capacity at constant volume: 334.16 ± 6.7 J/K/mol
463.45 K, Fluid (supercritical or subcritical phases), Mass density=457.5 kg/m3, Isochoric Heat Capacity Apparatus, x1 = 0.178
  molar heat capacity at constant volume: 459.11 ± 9.2 J/K/mol
463.65 K, Fluid (supercritical or subcritical phases), Mass density=87 kg/m3, Isochoric Heat Capacity Apparatus, x1 = 0.095
  molar heat capacity at constant volume: 685.49 ± 14 J/K/mol
463.85 K, Fluid (supercritical or subcritical phases), Mass density=87 kg/m3, Isochoric Heat Capacity Apparatus, x1 = 0.095
  molar heat capacity at constant volume: 688.16 ± 14 J/K/mol
464.05 K, Fluid (supercritical or subcritical phases), Mass density=87 kg/m3, Isochoric Heat Capacity Apparatus, x1 = 0.095
  molar heat capacity at constant volume: 691.36 ± 14 J/K/mol
465.43 K, Fluid (supercritical or subcritical phases), Mass density=87 kg/m3, Isochoric Heat Capacity Apparatus, x1 = 0.095
  molar heat capacity at constant volume: 690.82 ± 14 J/K/mol
466.3 K, Fluid (supercritical or subcritical phases), Mass density=408.8 kg/m3, Isochoric Heat Capacity Apparatus, x1 = 0.178
  molar heat capacity at constant volume: 493.61 ± 9.9 J/K/mol
467.05 K, Fluid (supercritical or subcritical phases), Mass density=408.8 kg/m3, Isochoric Heat Capacity Apparatus, x1 = 0.178
  molar heat capacity at constant volume: 490.54 ± 9.8 J/K/mol
467.19 K, Fluid (supercritical or subcritical phases), Mass density=87 kg/m3, Isochoric Heat Capacity Apparatus, x1 = 0.095
  molar heat capacity at constant volume: 706.83 ± 14 J/K/mol
467.97 K, Fluid (supercritical or subcritical phases), Mass density=408.8 kg/m3, Isochoric Heat Capacity Apparatus, x1 = 0.178
  molar heat capacity at constant volume: 487.71 ± 9.8 J/K/mol
468.76 K, Fluid (supercritical or subcritical phases), Mass density=374.7 kg/m3, Isochoric Heat Capacity Apparatus, x1 = 0.095
  molar heat capacity at constant volume: 336.34 ± 6.7 J/K/mol
468.76 K, Fluid (supercritical or subcritical phases), Mass density=408.8 kg/m3, Isochoric Heat Capacity Apparatus, x1 = 0.178
  molar heat capacity at constant volume: 486.42 ± 9.7 J/K/mol
470.72 K, Fluid (supercritical or subcritical phases), Mass density=477.6 kg/m3, Isochoric Heat Capacity Apparatus, x1 = 0.095
  molar heat capacity at constant volume: 326.31 ± 6.5 J/K/mol
471.2 K, Fluid (supercritical or subcritical phases), Mass density=281.4 kg/m3, Isochoric Heat Capacity Apparatus, x1 = 0.095
  molar heat capacity at constant volume: 360.93 ± 7.2 J/K/mol
471.69 K, Fluid (supercritical or subcritical phases), Mass density=281.4 kg/m3, Isochoric Heat Capacity Apparatus, x1 = 0.095
  molar heat capacity at constant volume: 359.81 ± 7.2 J/K/mol
471.89 K, Fluid (supercritical or subcritical phases), Mass density=281.4 kg/m3, Isochoric Heat Capacity Apparatus, x1 = 0.095
  molar heat capacity at constant volume: 358.48 ± 7.1 J/K/mol
473.25 K, Fluid (supercritical or subcritical phases), Mass density=281.4 kg/m3, Isochoric Heat Capacity Apparatus, x1 = 0.095
  molar heat capacity at constant volume: 350.91 ± 7 J/K/mol
474.61 K, Fluid (supercritical or subcritical phases), Mass density=457.5 kg/m3, Isochoric Heat Capacity Apparatus, x1 = 0.178
  molar heat capacity at constant volume: 456.77 ± 9.2 J/K/mol
475.97 K, Fluid (supercritical or subcritical phases), Mass density=110.8 kg/m3, Isochoric Heat Capacity Apparatus, x1 = 0.095
  molar heat capacity at constant volume: 594.8 ± 12 J/K/mol
476.12 K, Fluid (supercritical or subcritical phases), Mass density=110.8 kg/m3, Isochoric Heat Capacity Apparatus, x1 = 0.095
  molar heat capacity at constant volume: 599.07 ± 12 J/K/mol
476.33 K, Fluid (supercritical or subcritical phases), Mass density=110.8 kg/m3, Isochoric Heat Capacity Apparatus, x1 = 0.095
  molar heat capacity at constant volume: 591.07 ± 12 J/K/mol
476.36 K, Fluid (supercritical or subcritical phases), Mass density=320.2 kg/m3, Isochoric Heat Capacity Apparatus, x1 = 0.095
  molar heat capacity at constant volume: 342.64 ± 6.8 J/K/mol
476.56 K, Fluid (supercritical or subcritical phases), Mass density=408.8 kg/m3, Isochoric Heat Capacity Apparatus, x1 = 0.178
  molar heat capacity at constant volume: 472.21 ± 9.5 J/K/mol
476.75 K, Fluid (supercritical or subcritical phases), Mass density=110.8 kg/m3, Isochoric Heat Capacity Apparatus, x1 = 0.095
  molar heat capacity at constant volume: 590.53 ± 12 J/K/mol
476.94 K, Fluid (supercritical or subcritical phases), Mass density=398.3 kg/m3, Isochoric Heat Capacity Apparatus, x1 = 0.095
  molar heat capacity at constant volume: 336.82 ± 6.7 J/K/mol
477.33 K, Fluid (supercritical or subcritical phases), Mass density=110.8 kg/m3, Isochoric Heat Capacity Apparatus, x1 = 0.095
  molar heat capacity at constant volume: 594.8 ± 12 J/K/mol
477.52 K, Fluid (supercritical or subcritical phases), Mass density=374.7 kg/m3, Isochoric Heat Capacity Apparatus, x1 = 0.095
  molar heat capacity at constant volume: 337.73 ± 6.8 J/K/mol
477.52 K, Fluid (supercritical or subcritical phases), Mass density=375 kg/m3, Isochoric Heat Capacity Apparatus, x1 = 0.178
  molar heat capacity at constant volume: 493.12 ± 9.8 J/K/mol
477.81 K, Fluid (supercritical or subcritical phases), Mass density=375 kg/m3, Isochoric Heat Capacity Apparatus, x1 = 0.178
  molar heat capacity at constant volume: 495.64 ± 9.9 J/K/mol
478.2 K, Fluid (supercritical or subcritical phases), Mass density=375 kg/m3, Isochoric Heat Capacity Apparatus, x1 = 0.178
  molar heat capacity at constant volume: 491.03 ± 9.8 J/K/mol
478.49 K, Fluid (supercritical or subcritical phases), Mass density=375 kg/m3, Isochoric Heat Capacity Apparatus, x1 = 0.178
  molar heat capacity at constant volume: 492.57 ± 9.8 J/K/mol
479.84 K, Fluid (supercritical or subcritical phases), Mass density=408.8 kg/m3, Isochoric Heat Capacity Apparatus, x1 = 0.178
  molar heat capacity at constant volume: 471.47 ± 9.4 J/K/mol
481.77 K, Fluid (supercritical or subcritical phases), Mass density=241 kg/m3, Isochoric Heat Capacity Apparatus, x1 = 0.095
  molar heat capacity at constant volume: 380.35 ± 7.6 J/K/mol
481.96 K, Fluid (supercritical or subcritical phases), Mass density=241 kg/m3, Isochoric Heat Capacity Apparatus, x1 = 0.095
  molar heat capacity at constant volume: 378.38 ± 7.6 J/K/mol
482.02 K, Fluid (supercritical or subcritical phases), Mass density=131.5 kg/m3, Isochoric Heat Capacity Apparatus, x1 = 0.095
  molar heat capacity at constant volume: 517.93 ± 10 J/K/mol
482.41 K, Fluid (supercritical or subcritical phases), Mass density=131.5 kg/m3, Isochoric Heat Capacity Apparatus, x1 = 0.095
  molar heat capacity at constant volume: 521.08 ± 10 J/K/mol
483.31 K, Fluid (supercritical or subcritical phases), Mass density=241 kg/m3, Isochoric Heat Capacity Apparatus, x1 = 0.095
  molar heat capacity at constant volume: 370.32 ± 7.4 J/K/mol
483.37 K, Fluid (supercritical or subcritical phases), Mass density=131.5 kg/m3, Isochoric Heat Capacity Apparatus, x1 = 0.095
  molar heat capacity at constant volume: 528.44 ± 11 J/K/mol
485.04 K, Fluid (supercritical or subcritical phases), Mass density=281.4 kg/m3, Isochoric Heat Capacity Apparatus, x1 = 0.095
  molar heat capacity at constant volume: 352.45 ± 7 J/K/mol
